Results from patent US12180207B2 (ARRAY BIOPHARMA INC., priority 2018, dated 2024).

target: HEK-293 cells transfected with dox-inducible human wild type FGFR3 (Homo sapiens (Human), UniProt P22607); assay: FGFR3 pFGFR cell assay (ELISA); format: cell-based; details: HEK-293 dox-inducible FGFR3, 1 hour compound, 100 ng/ml FGF-acidic
Protocol: FGFR3 pFGFR Cell Assay: • HEK-293 cells transfected with dox-inducible human wild type FGFR3 (SEQ ID NO: 5) were plated in a collagen or poly-D-lysine coated 96 well flat bottom plates at 4×10^5 cells/well in complete DMEM medium containing 10% FBS and 1 μg/ml doxycycline and allowed to attach for 24 h at 37° C., 5% CO2. Cells were treated with compound using 1:3 serial dilutions with a top final concentration of 5 μM. Compound was incubated on cells for 1 hour at 37° C., 5% CO2. Cells were then stimulated with a final concentration of 100 ng/ml human FGF-acidic for 5 minutes at 37° C., 5% CO2. Medium was removed and cells were lysed with lysis buffer containing phosphatase and protease inhibitors. Phospho FGFR3 was measured by ELISA (R&D Systems cat DYC2719). The ELISA captures total FGFR3 and detects total phospho tyrosine. Optical density was measured for each well using a Versamax reader at a wavelength of 450 nm. 100 POC was determined using no test compounds and 0 POC was determined using a control compound. The POC values were fit to a 4-parameter logistic curve as a function of the concentration of the compound, and the IC50 value is the point where the curve crosses 50 POC.

HEK-293 cells transfected with dox-inducible human wild type FGFR3, sequence (P22607 23-806): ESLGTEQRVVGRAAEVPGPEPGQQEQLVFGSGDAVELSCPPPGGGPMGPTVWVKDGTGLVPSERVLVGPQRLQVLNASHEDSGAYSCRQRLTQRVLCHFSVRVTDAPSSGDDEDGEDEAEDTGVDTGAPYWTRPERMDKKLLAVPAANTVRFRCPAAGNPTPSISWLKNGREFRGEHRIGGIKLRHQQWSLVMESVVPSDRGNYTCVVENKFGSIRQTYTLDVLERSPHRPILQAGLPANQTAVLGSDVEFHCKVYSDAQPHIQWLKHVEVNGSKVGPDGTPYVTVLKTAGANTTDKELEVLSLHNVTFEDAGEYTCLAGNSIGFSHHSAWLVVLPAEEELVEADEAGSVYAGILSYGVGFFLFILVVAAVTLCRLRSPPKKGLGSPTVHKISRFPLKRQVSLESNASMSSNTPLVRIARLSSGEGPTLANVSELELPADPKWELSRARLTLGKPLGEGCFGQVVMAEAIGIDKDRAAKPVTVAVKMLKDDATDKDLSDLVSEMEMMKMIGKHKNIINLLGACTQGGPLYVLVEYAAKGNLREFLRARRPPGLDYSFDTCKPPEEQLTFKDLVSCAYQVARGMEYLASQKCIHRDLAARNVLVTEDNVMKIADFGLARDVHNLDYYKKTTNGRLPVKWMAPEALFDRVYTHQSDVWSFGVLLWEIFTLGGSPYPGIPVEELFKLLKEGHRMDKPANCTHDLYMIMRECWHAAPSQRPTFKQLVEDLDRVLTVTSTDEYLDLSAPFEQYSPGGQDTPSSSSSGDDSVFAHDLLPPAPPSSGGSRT

IC50 [nM] | Compound
110 | C=CC(=O)N1C[C@H]2CN(C(=O)N3CCC(n4cc(-c5cc(OC)c6c(C#N)cnn6c5)cn4)CC3)C[C@H]21 [Example 7, 6-(1-(1-((1S,5S)-6-acryloyl-3,6-diazabicyclo[3.2.0]heptane-3-carbonyl)piperidin-4-yl)-1H-pyrazol-4-yl)-4-methoxypyrazolo[1,5-a]pyridine-3-carbonitrile]
39 | C=CC(=O)N1CCC(F)(C(=O)N2CCC(n3cc(-c4cc(OC)c5c(C#N)cnn5c4)cn3)CC2)CC1 [Example 13, 6-(1-(1-(1-acryloyl-4-fluoropiperidine-4-carbonyl)piperidin-4-yl)-1H-pyrazol-4-yl)-4-methoxypyrazolo[1,5-a]pyridine-3-carbonitrile]
1130 | C=CC(=O)N1CC(C(=O)N2CCC(n3cnc(-c4cc(OC)c5c(C#N)cnn5c4)c3)CC2)C1 [Example 98, 6-(1-(1-(1-acryloylazetidine-3-carbonyl)piperidin-4-yl)-1H-imidazol-4-yl)-4-methoxypyrazolo[1,5-a]pyridine-3-carbonitrile]
31 | C=CC(=O)N1CC(F)(C(=O)N2CCC(n3cc(-c4cc(OC)c5c(Cl)cnn5c4)cn3)CC2)C1 [Example 121, 1-(3-(4-(4-(3-chloro-4-methoxypyrazolo[1,5-a]pyridin-6-yl)-1H-pyrazol-1-yl)piperidine-1-carbonyl)-3-fluoroazetidin-1-yl)prop-2-en-1-one]
71 | C=CC(=O)N1CC(C(=O)N2CCC(n3cc(-c4cc(OC)c5c(Cl)cnn5c4)cn3)CC2)C1 [Example 122, 1-(3-(4-(4-(3-chloro-4-methoxypyrazolo[1,5-a]pyridin-6-yl)-1H-pyrazol-1-yl)piperidine-1-carbonyl)azetidin-1-yl)prop-2-en-1-one]
57 | C=CC(=O)N1CC(C)(C(=O)N2CCC(n3cc(-c4cc(OC)c5c(Cl)cnn5c4)cn3)CC2)C1 [Example 123, 1-(3-(4-(4-(3-chloro-4-methoxypyrazolo[1,5-a]pyridin-6-yl)-1H-pyrazol-1-yl)piperidine-1-carbonyl)-3-methylazetidin-1-yl)prop-2-en-1-one]
24 | C=CC(=O)N1CC(OC)(C(=O)N2CCC(n3cc(-c4cc(OC)c5c(Cl)cnn5c4)cn3)CC2)C1 [Example 124, 1-(3-(4-(4-(3-chloro-4-methoxypyrazolo[1,5-a]pyridin-6-yl)-1H-pyrazol-1-yl)piperidine-1-carbonyl)-3-methoxyazetidin-1-yl)prop-2-en-1-one]
20 | C=CC(=O)N1CC(C(=O)N2CCC(n3cc(-c4cc(OCC)c5c(C#N)cnn5c4)cn3)CC2)C1 [Example 126, 6-(1-(1-(1-acryloylazetidine-3-carbonyl)piperidin-4-yl)-1H-pyrazol-4-yl)-4-ethoxypyrazolo[1,5-a]pyridine-3-carbonitrile]
18 | C=CC(=O)N1CC(C(=O)N2CCC(n3cc(-c4cc(OC(C)C)c5c(C#N)cnn5c4)cn3)CC2)C1 [Example 127, 6-(1-(1-(1-acryloylazetidine-3-carbonyl)piperidin-4-yl)-1H-pyrazol-4-yl)-4-isopropoxypyrazolo[1,5-a]pyridine-3-carbonitrile]
23 | C=CC(=O)N1CC(C(=O)N2CCC(n3cc(-c4cc(C(C)C)c5c(C#N)cnn5c4)cn3)CC2)C1 [Example 129, 6-(1-(1-(1-acryloylazetidine-3-carbonyl)piperidin-4-yl)-1H-pyrazol-4-yl)-4-isopropylpyrazolo[1,5-a]pyridine-3-carbonitrile]
31 | C=CC(=O)N1CC(CN2CCC(n3cc(-c4cc(OC)c5c(C#N)cnn5c4)cn3)CC2)C1 [Example 132, 6-(1-(1-((1-acryloylazetidin-3-yl)methyl)piperidin-4-yl)-1H-pyrazol-4-yl)-4-methoxypyrazolo[1,5-a]pyridine-3-carbonitrile]
12 | C=CC(=O)N1CC(S(=O)(=O)N2CCC(n3cc(-c4cc(OC)c5c(C#N)cnn5c4)cn3)CC2)C1 [Example 134, 6-(1-(1-((1-acryloylazetidin-3-yl)sulfonyl)piperidin-4-yl)-1H-pyrazol-4-yl)-4-methoxypyrazolo[1,5-a]pyridine-3-carbonitrile]
17 | C#CC(=O)N1CC(C(=O)N2CCC(n3cc(-c4cc(OC)c5c(C#N)cnn5c4)cn3)CC2)C1 [Example 138, 4-methoxy-6-(1-(1-(1-propioloylazetidine-3-carbonyl)piperidin-4-yl)-1H-pyrazol-4-yl)pyrazolo[1,5-a]pyridine-3-carbonitrile]
527 | COc1cc(-c2cnn(C3CCN(C(=O)C4CN(C(=O)/C=C/CN(C)C)C4)CC3)c2)cn2ncc(C#N)c12 [Example 143, (E)-6-(1-(1-(1-(4-(dimethylamino)but-2-enoyl)azetidine-3-carbonyl)piperidin-4-yl)-1H-pyrazol-4-yl)-4-methoxypyrazolo [1,5-a]pyridine-3-carbonitrile]
139 | COc1cc(-c2cnn(C3CCN(C(=O)C4CN(C(=O)/C=C/CN(C)C)C4)CC3)c2)cn2ncc(Cl)c12 [Example 174]

The remaining lines, values behind:

Compound | IC50 [nM]
C=CC(=O)N1CC2(CCN(C(=O)N3CCC(n4cc(-c5cc(OC)c6c(C#N)cnn6c5)cn4)CC3)CC2)C1 [Example 6, 6-(1-(1-(2-acryloyl-2,7-diazaspiro[3.5]nonane-7-carbonyl)piperidin-4-yl)-1H-pyrazol-4-yl)-4-methoxypyrazolo[1,5-a]pyridine-3-carbonitrile] | 72
C=CC(=O)N1CC2(CCN(C(=O)N3CCC(n4cc(-c5cc(OC)c6c(C#N)cnn6c5)cn4)CC3)C2)C1 [Example 8, 6-(1-(1-(2-acryloyl-2,6-diazaspiro[3.4]octane-6-carbonyl)piperidin-4-yl)-1H-pyrazol-4-yl)-4-methoxypyrazolo[1,5-a]pyridine-3-carbonitrile] | 149
C=CC(=O)N1CC(C(=O)N2CCN(c3ccc(-c4cc(OC)c5c(C#N)cnn5c4)cc3)CC2)C1 [Example 100, 6-(4-(4-(1-acryloylazetidine-3-carbonyl)piperazin-1-yl)phenyl)-4-methoxypyrazolo[1,5-a]pyridine-3-carbonitrile] | 21
C=CC(=O)N1CC(C(=O)N2CCC(c3ccc(-c4cc(OC)c5c(C#N)cnn5c4)cc3)CC2)C1 [Example 101, 6-(4-(1-(1-acryloylazetidine-3-carbonyl)piperidin-4-yl)phenyl)-4-methoxypyrazolo[1,5-a]pyridine-3-carbonitrile] | 69
C=CC(=O)N1CC(C(=O)N2CCC(n3cc(-c4cc(OC5CCC5)c5c(C#N)cnn5c4)cn3)CC2)C1 [Example 125, 6-(1-(1-(1-acryloylazetidine-3-carbonyl)piperidin-4-yl)-1H-pyrazol-4-yl)-4-cyclobutoxypyrazolo[1,5-a]pyridine-3-carbonitrile] | 9
C=CC(=O)N1CC(C(=O)N2CCC(n3cc(-c4cc(OCC(C)C)c5c(C#N)cnn5c4)cn3)CC2)C1 [Example 128, 6-(1-(1-(1-acryloylazetidine-3-carbonyl)piperidin-4-yl)-1H-pyrazol-4-yl)-4-isobutoxypyrazolo[1,5-a]pyridine-3-carbonitrile] | 28
C=CC(=O)N1CC(C(=O)N2CCC(n3cc(-c4cc(-c5ccc(NC(=O)C6CC6)cc5F)c5c(C#N)cnn5c4)cn3)CC2)C1 [Example 130, N-(4-(6-(1-(1-(1-acryloylazetidine-3-carbonyl)piperidin-4-yl)-1H-pyrazol-4-yl)-3-cyanopyrazolo[1,5-a]pyridin-4-yl)-3-fluorophenyl)cyclopropane-carboxamide] | 295
C=CC(=O)N1CC(C(=O)N2CCC(n3cc(-c4cc(-c5ccccc5F)c5c(C#N)cnn5c4)cn3)CC2)C1 [Example 131, 6-(1-(1-(1-acryloylazetidine-3-carbonyl)piperidin-4-yl)-1H-pyrazol-4-yl)-4-(2-fluorophenyl)pyrazolo[1,5-a]pyridine-3-carbonitrile] | 15
COc1cc(-c2cnn(C3CCN(C(=O)C4CN(C(=O)/C=C/CN5CCCCC5)C4)CC3)c2)cn2ncc(C#N)c12 [Example 145, (E)-4-methoxy-6-(1-(1-(1-(4-(piperidin-1-yl)but-2-enoyl)azetidine-3-carbonyl)piperidin-4-yl)-1H-pyrazol-4-yl)pyrazolo[1,5-a]pyridine-3-carbonitrile] | 257
COc1cc(-c2cnn(C3CCN(CC4CN(C(=O)/C=C/CN(C)C)C4)CC3)c2)cn2ncc(C#N)c12 [Example 146, (E)-6-(1-(1-((1-(4-(dimethylamino)but-2-enoyl)azetidin-3-yl)methyl)piperidin-4-yl)-1H-pyrazol-4-yl)-4-methoxypyrazolo [1,5-a]pyridine-3-carbonitrile] | 80
COc1cc(-c2cnn(C3CCN(CC4CN(C(=O)/C=C/CN5CCCCC5)C4)CC3)c2)cn2ncc(C#N)c12 [Example 175, (E)-4-methoxy-6-(1-(1-((1-(4-(piperidin-1-yl)but-2-enoyl)azetidin-3-yl)methyl)piperidin-4-yl)-1H-pyrazol-4-yl)pyrazolo[1,5-a]pyridine-3-carbonitrile] | 52
C=CC(=O)N(C)c1ccc(C(=O)N2CCC(n3cc(-c4cc(OC)c5c(C#N)cnn5c4)cn3)CC2)cc1 [Example 178, N-(4-(4-(4-(3-cyano-4-methoxypyrazolo[1,5-a]pyridin-6-yl)-1H-pyrazol-1-yl)piperidine-1-carbonyl)phenyl)-N-methylacrylamide] | 44
